Laboratory results as given in the CheMixHub viscosity set.

Assay: xn = mol fraction of the nth substance listed

CN(C)CCCN + O
viscosity [mPa·s]
Conditions | 293.15 K | 303.15 K | 308.15 K | 313.15 K | 318.15 K | 323.15 K
100 kPa, x1 = 0.1 | 8.105 | 5.084 | – | 3.421 | – | 2.362
100 kPa, x1 = 0.1998 | 13.62 | 8.093 | – | 5.329 | – | 3.605
100 kPa, x1 = 0.2998 | 11.49 | 7.049 | – | 4.586 | – | 3.142
100 kPa, x1 = 0.4004 | 7.437 | 4.84 | – | 3.296 | – | 2.359
100 kPa, x1 = 0.5003 | 4.661 | 3.222 | – | 2.339 | – | 1.759
100 kPa, x1 = 0.5989 | 3.168 | 2.25 | – | 1.781 | – | 1.363
100 kPa, x1 = 0.6992 | 2.225 | 1.7 | – | 1.333 | – | 1.076
100 kPa, x1 = 0.8005 | 1.691 | 1.294 | – | 1.046 | – | 0.8667
100 kPa, x1 = 0.8999 | 1.327 | 1.07 | – | 0.8872 | – | 0.75
101 kPa, x1 = 0.0488 | – | 2.376 | – | – | – | –
101 kPa, x1 = 0.0996 | – | 4.856 | 3.946 | 3.263 | 2.739 | 2.323
101 kPa, x1 = 0.0999 | – | 5.01 | – | – | – | –
101 kPa, x1 = 0.147 | – | 7.175 | – | – | – | –
101 kPa, x1 = 0.1504 | – | 7.078 | 5.637 | 4.578 | 3.791 | 3.16
101 kPa, x1 = 0.1743 | – | 7.96 | – | – | – | –
101 kPa, x1 = 0.1994 | – | 8.356 | 6.623 | 5.341 | 4.372 | 3.624
101 kPa, x1 = 0.1999 | – | 8.348 | – | – | – | –
101 kPa, x1 = 0.2247 | – | 8.378 | – | – | – | –
101 kPa, x1 = 0.2497 | – | 8.194 | – | – | – | –
101 kPa, x1 = 0.2521 | – | 8.394 | 6.631 | 5.351 | 4.383 | 3.636
101 kPa, x1 = 0.2744 | – | 7.787 | – | – | – | –
101 kPa, x1 = 0.2995 | – | 7.688 | 6.133 | 4.967 | 4.089 | 3.402
101 kPa, x1 = 0.2998 | – | 7.275 | – | – | – | –
101 kPa, x1 = 0.3809 | – | 6.001 | 4.861 | 4.005 | 3.354 | 2.831
101 kPa, x1 = 0.5 | – | 3.919 | 3.282 | 2.77 | 2.372 | 2.049
101 kPa, x1 = 0.5994 | – | 2.525 | 2.116 | 1.884 | 1.65 | 1.461
101 kPa, x1 = 0.6826 | – | 1.939 | 1.701 | 1.502 | 1.339 | 1.201
101 kPa, x1 = 0.7798 | – | 1.492 | 1.329 | 1.191 | 1.077 | 0.9811
101 kPa, x1 = 0.8918 | – | 1.163 | 1.042 | 0.9578 | 0.8777 | 0.8099
